Measured values: ChEMBL document CHEMBL5500371, “Arginine and tryptophan-rich dendritic antimicrobial peptides that disrupt membranes for bacterial infection in vivo” (Eur J Med Chem, 2024)
Values after ≈ are worked out from the molar mass of the structure shown. Active and inactive are the calls of the source. The rule behind the calls is not given here. Where a SMILES comes first, the peptide text is derived from it. Side-chain parts run from the residue outwards.

Legend:
Escherichia coli [1] = assay: Resistant development in Escherichia coli assessed as increase in MIC at sub-MIC measured after 20 passages; assay type: functional, organism-based
Escherichia coli [2] = assay: Drug resistance, ratio of MIC for Escherichia coli after 14 to 19 passages to MIC for Escherichia coli after initial exposure; assay type: functional, organism-based
Staphylococcus aureus [3] = assay: Drug resistance, ratio of MIC for Staphylococcus aureus after 14 to 19 passages to MIC for Staphylococcus aureus after initial exposure; assay type: functional, organism-based
Staphylococcus aureus [4] = assay: Antibacterial activity against Staphylococcus aureus ATCC 25923 assessed as inhibition of bacterial growth incubated for 20 hrs by broth microdilution method; assay type: functional
Bacillus subtilis = assay: Antibacterial activity against Bacillus subtilis ATCC 23857 assessed as inhibition of bacterial growth incubated for 20 hrs by broth microdilution method; assay type: functional
Acinetobacter baumannii = assay: Antibacterial activity against Acinetobacter baumannii ATCC 19606 assessed as inhibition of bacterial growth incubated for 20 hrs by broth microdilution method; assay type: functional
Klebsiella pneumoniae = assay: Antibacterial activity against Klebsiella pneumoniae ATCC 700603 assessed as inhibition of bacterial growth incubated for 20 hrs by broth microdilution method; assay type: functional
Escherichia coli [5] = assay: Antibacterial activity against Escherichia coli ATCC 25922 assessed as inhibition of bacterial growth incubated for 20 hrs by broth microdilution method; assay type: functional
Pseudomonas aeruginosa = assay: Antibacterial activity against Pseudomonas aeruginosa ATCC 27853 assessed as inhibition of bacterial growth incubated for 20 hrs by broth microdilution method; assay type: functional
Erythrocyte = assay: Hemolytic activity in mouse erythrocytes assessed as 10% hemolysis incubated for 1 hr by absorbance based analysis; assay type: toxicity, cell-based
[6] = (§1) Cytotoxicity against HEK293T cells assessed as cell death measured after 1 hr by resazurin dye based analysis; assay type: toxicity, HEK-293T; settings: human, HEK293T cells
Escherichia coli [7] = assay: Antibacterial activity against Escherichia coli ATCC 25922 assessed as inhibition of bacterial growth incubated for 20 hrs in presence of NaCl by broth microdilution method (reference value: 8 microM); assay type: functional
Escherichia coli [8] = assay: Antibacterial activity against Escherichia coli ATCC 25922 assessed as inhibition of bacterial growth incubated for 20 hrs in presence of KCl by broth microdilution method (reference value: 8 microM); assay type: functional
Escherichia coli [9] = assay: Antibacterial activity against Escherichia coli ATCC 25922 assessed as inhibition of bacterial growth incubated for 20 hrs in presence of MgCl2 by broth microdilution method (reference value: 8 microM); assay type: functional
Escherichia coli [10] = assay: Antibacterial activity against Escherichia coli ATCC 25922 assessed as inhibition of bacterial growth incubated for 20 hrs in presence of FeCl3 by broth microdilution method (reference value: 8 microM); assay type: functional
Escherichia coli [11] = assay: Antibacterial activity against Escherichia coli ATCC 25922 assessed as inhibition of bacterial growth incubated for 20 hrs in presence of ZnCl2 by broth microdilution method (reference value: 8 microM); assay type: functional
Staphylococcus aureus [12] = assay: Antibacterial activity against Staphylococcus aureus ATCC 25923 assessed as inhibition of bacterial growth incubated for 20 hrs in presence of NaCl by broth microdilution method (reference value: 8 microM); assay type: functional
Staphylococcus aureus [13] = assay: Antibacterial activity against Staphylococcus aureus ATCC 25923 assessed as inhibition of bacterial growth incubated for 20 hrs in presence of KCl by broth microdilution method (reference value: 8 microM); assay type: functional
Staphylococcus aureus [14] = assay: Antibacterial activity against Staphylococcus aureus ATCC 25923 assessed as inhibition of bacterial growth incubated for 20 hrs in presence of MgCl2 by broth microdilution method (reference value: 8 microM); assay type: functional
Staphylococcus aureus [15] = assay: Antibacterial activity against Staphylococcus aureus ATCC 25923 assessed as inhibition of bacterial growth incubated for 20 hrs in presence of FeCl3 by broth microdilution method (reference value: 8 microM); assay type: functional
Staphylococcus aureus [16] = assay: Antibacterial activity against Staphylococcus aureus ATCC 25923 assessed as inhibition of bacterial growth incubated for 20 hrs in presence of ZnCl2 by broth microdilution method (reference value: 8 microM); assay type: functional
Staphylococcus aureus [17] = assay: Antibacterial activity against Staphylococcus aureus ATCC 25923 assessed as inhibition of bacterial growth by measuring fold increase in MIC incubated for 20 hrs in presence of NaCl by broth microdilution method relative to control; assay type: functional
Staphylococcus aureus [18] = assay: Antibacterial activity against Staphylococcus aureus ATCC 25923 assessed as inhibition of bacterial growth by measuring fold increase in MIC incubated for 20 hrs in presence of KCl by broth microdilution method relative to control; assay type: functional
Staphylococcus aureus [19] = assay: Antibacterial activity against Staphylococcus aureus ATCC 25923 assessed as inhibition of bacterial growth by measuring fold increase in MIC incubated for 20 hrs in presence of MgCl2 by broth microdilution method relative to control; assay type: functional
Staphylococcus aureus [20] = assay: Antibacterial activity against Staphylococcus aureus ATCC 25923 assessed as inhibition of bacterial growth by measuring fold increase in MIC incubated for 20 hrs in presence of FeCl3 by broth microdilution method relative to control; assay type: functional
Staphylococcus aureus [21] = assay: Antibacterial activity against Staphylococcus aureus ATCC 25923 assessed as inhibition of bacterial growth by measuring fold increase in MIC incubated for 20 hrs in presence of ZnCl2 by broth microdilution method relative to control; assay type: functional
Escherichia coli [22] = assay: Antibacterial activity against Escherichia coli ATCC 25922 assessed as inhibition of bacterial growth preincubated with 10% mouse serum for 1 hr and measured after 20 hrs by broth microdilution method; assay type: functional; settings: time 21 hrs
Escherichia coli [23] = assay: Antibacterial activity against Escherichia coli ATCC 25922 assessed as inhibition of bacterial growth preincubated with 10% mouse serum for 6 hrs and measured after 20 hrs by broth microdilution method; assay type: functional; settings: time 26 hrs
[24] = Therapeutic index, ratio of MHC10 for hemolytic activity in mouse erythrocytes preincubated with 10% mouse serum for 1 hr to MIC for Escherichia coli ATCC 25922 preincubated with 10% mouse serum for 1 hr; assay type: toxicity, cell-based
[25] = Therapeutic index, ratio of MHC10 for hemolytic activity in mouse erythrocytes preincubated with 10% mouse serum for 6 hrs to MIC for Escherichia coli ATCC 25922 preincubated with 10% mouse serum for 6 hrs; assay type: toxicity, cell-based
Staphylococcus aureus [26] = assay: Antibacterial activity against Staphylococcus aureus ATCC 25923 assessed as inhibition of bacterial growth preincubated with 10% mouse serum for 1 hr and measured after 20 hrs by broth microdilution method; assay type: functional; settings: time 21 hrs
Staphylococcus aureus [27] = assay: Antibacterial activity against Staphylococcus aureus ATCC 25923 assessed as inhibition of bacterial growth preincubated with 10% mouse serum for 6 hrs and measured after 20 hrs by broth microdilution method; assay type: functional; settings: time 21 hrs
[28] = Therapeutic index, ratio of MHC10 for hemolytic activity in mouse erythrocytes preincubated with 10% mouse serum for 1 hr to MIC for Staphylococcus aureus ATCC 25923 preincubated with 10% mouse serum for 1 hr; assay type: toxicity, cell-based
[29] = Therapeutic index, ratio of MHC10 for hemolytic activity in mouse erythrocytes preincubated with 10% mouse serum for 6 hrs to MIC for Staphylococcus aureus ATCC 25923 preincubated with 10% mouse serum for 6 hrs; assay type: toxicity, cell-based
[30] = Hemolytic activity in mouse erythrocytes at 256 uM preincubated for 1 to 6 hr with 10% mouse serum and measured after 1 hr by absorbance based analysis; assay type: toxicity, cell-based, Erythrocyte; settings: time 1-7 hrs, read-out: Activity
[31] = Stability in mouse serum assessed as half life at 10 mM measured upto 24 hrs by RP-HPLC analysis; assay type: ADME, cell-free
HEK-293T = assay: as §1; assay type: toxicity; settings: human, hek-293t, 1 h
[32] = Acute toxicity in male BALB/c mouse assessed as animal death at 16.3 to 24.5 mg/kg, ip administered as single dose and measured after 60 mins; assay type: organism-based; settings: in vivo, 1 h, dose 16.3-24.5 mg/kg
[33] = Acute toxicity in male BALB/c mouse assessed as eye closure at 16.3 to 24.5 mg/kg, ip administered as single dose and measured after 60 mins; assay type: organism-based; settings: in vivo, 1 h, dose 16.3-24.5 mg/kg
[34] = Acute toxicity in male BALB/c mouse assessed as convulsions at 16.3 to 24.5 mg/kg, ip administered as single dose and measured after 60 mins; assay type: organism-based; settings: in vivo, 1 h, dose 16.3-24.5 mg/kg
[35] = Acute toxicity in male BALB/c mouse assessed as respiratory asthenia at 16.3 to 24.5 mg/kg, ip administered as single dose and measured after 60 mins; assay type: organism-based; settings: in vivo, 1 h, dose 16.3-24.5 mg/kg
[36] = Acute toxicity in male BALB/c mouse assessed as mortality rate at 24.5 mg/kg, ip administered as single dose and measured after 120 mins relative to control; assay type: organism-based; settings: in vivo, 2 h
[37] = Acute toxicity in ip dosed male BALB/c mouse administered as single dose; assay type: organism-based; settings: in vivo, ip
[38] = Systemic toxicity in male BALB/c mouse assessed as pathological changes in heart at 20.83 mg/kg, ip administered as single dose by H and E staining based analysis; assay type: organism-based; settings: in vivo
[39] = Systemic toxicity in male BALB/c mouse assessed as hemorrhage at 20.83 mg/kg, ip administered as single dose by H and E staining based analysis; assay type: organism-based; settings: in vivo
[40] = Systemic toxicity in male BALB/c mouse assessed as inflammatory cell infiltration at 20.83 mg/kg, ip administered as single dose by H and E staining based analysis; assay type: organism-based; settings: in vivo
[41] = Systemic toxicity in male BALB/c mouse assessed as severe hepatocyte necrosis at 20.83 mg/kg, ip administered as single dose by H and E staining based analysis; assay type: organism-based; settings: hepatocytes
[42] = Systemic toxicity in male BALB/c mouse assessed as marked alveolar cavity wrinkling at 20.83 mg/kg, ip administered as single dose by H and E staining based analysis; assay type: organism-based; settings: in vivo
[43] = mouse erythrocytes, read-out: TI

## GENTAMICIN
Escherichia coli [1]
  Activity: Active
Escherichia coli [2]
  Ratio: 32
Staphylococcus aureus [3]
  Ratio: 32

## N=C(N)NCCC[C@H](NC(=O)[C@H](CCCNC(=N)N)NC(=O)[C@H](CCCNC(=N)N)NC(=O)[C@H](CCCNC(=N)N)NC(=O)[C@H](CCCCNC(=O)[C@H](Cc1c[nH]c2ccccc12)NC(=O)[C@@H](N)Cc1c[nH]c2ccccc12)NC(=O)[C@H](Cc1c[nH]c2ccccc12)NC(=O)[C@@H](N)Cc1c[nH]c2ccccc12)C(N)=O (H-WWK([Trp-Trp])RRRR-NH2)
Staphylococcus aureus [4]
  MIC: 8 µM (≈ 12.1 µg/mL)
Bacillus subtilis
  MIC: 8 µM (≈ 12.1 µg/mL)
Acinetobacter baumannii
  MIC: 64 µM (≈ 96.9 µg/mL)
Klebsiella pneumoniae
  MIC: 128 µM (≈ 194 µg/mL)
Escherichia coli [5]
  MIC: 8 µM (≈ 12.1 µg/mL)
Pseudomonas aeruginosa
  MIC: 32 µM (≈ 48.5 µg/mL)
Erythrocyte
  MHC10: > 256 µM
[6]
  CC50 at 1 h: > 128 µM
Escherichia coli [7]
  MIC: 16 µM
Escherichia coli [8]
  MIC: 8 µM
Escherichia coli [9]
  MIC: 8 µM
Escherichia coli [10]
  MIC: 8 µM
Escherichia coli [11]
  MIC: 8 µM
Staphylococcus aureus [12]
  MIC: 8 µM
Staphylococcus aureus [13]
  MIC: 8 µM
Staphylococcus aureus [14]
  MIC: 8 µM
Staphylococcus aureus [15]
  MIC: 8 µM
Staphylococcus aureus [16]
  MIC: 8 µM
Staphylococcus aureus [17]
  fold change (FC): <=2
Staphylococcus aureus [18]
  fold change (FC): <=2
Staphylococcus aureus [19]
  fold change (FC): <=2
Staphylococcus aureus [20]
  fold change (FC): <=2
Staphylococcus aureus [21]
  fold change (FC): <=2
Escherichia coli [22]
  MIC: 2 µM (≈ 3.03 µg/mL)
Escherichia coli [23]
  MIC: 16 µM (≈ 24.2 µg/mL)
[24]; [43]
  selectivity ratio: 0.5
[25]; [43]
  selectivity ratio: 0.06
Staphylococcus aureus [26]
  MIC: 2 µM (≈ 3.03 µg/mL)
Staphylococcus aureus [27]
  MIC: 8 µM (≈ 12.1 µg/mL)
[28]; [43]
  selectivity ratio: 0.5
[29]; [43]
  selectivity ratio: 0.13
[30]
  hemolysis at 1 h, 256 µM: < 10%
[31]
  half-life at 10000 µM: 32.4 min

## POLYMYXIN B
Erythrocyte
  MHC10: > 256 µM
HEK-293T
  CC50: > 128 µM
[24]; erythrocytes
  TI: 1
[25]; erythrocytes
  TI: 0.5
[28]; erythrocytes
  TI: 1
[29]; erythrocytes
  TI: 1
[32]
  Activity: Toxic
[33]
  Activity: Toxic
[34]
  Activity: Toxic
[35]
  Activity: Toxic
[36]
  Activity: 100%
[37]
  LD50: 20.83 mg/kg
[38]
  Activity: Non-Toxic
[39]
  Activity: Toxic
[40]
  Activity: Toxic
[41]
  Activity: Toxic
[42]
  Activity: Toxic
